{"source": "ChEMBL document CHEMBL3860026", "about": "“Depsidones from Lichens as Natural Product Inhibitors of M-Phase Phosphoprotein 1, a Human Kinesin Required for Cytokinesis” (J Nat Prod, 2016)", "key": {"[1]": {"biological_target": "Kinesin-like protein KIF20B (Homo sapiens, UniProt Q96Q89)", "sequence (Q96Q89 whole entry, the tested form may be a part)": "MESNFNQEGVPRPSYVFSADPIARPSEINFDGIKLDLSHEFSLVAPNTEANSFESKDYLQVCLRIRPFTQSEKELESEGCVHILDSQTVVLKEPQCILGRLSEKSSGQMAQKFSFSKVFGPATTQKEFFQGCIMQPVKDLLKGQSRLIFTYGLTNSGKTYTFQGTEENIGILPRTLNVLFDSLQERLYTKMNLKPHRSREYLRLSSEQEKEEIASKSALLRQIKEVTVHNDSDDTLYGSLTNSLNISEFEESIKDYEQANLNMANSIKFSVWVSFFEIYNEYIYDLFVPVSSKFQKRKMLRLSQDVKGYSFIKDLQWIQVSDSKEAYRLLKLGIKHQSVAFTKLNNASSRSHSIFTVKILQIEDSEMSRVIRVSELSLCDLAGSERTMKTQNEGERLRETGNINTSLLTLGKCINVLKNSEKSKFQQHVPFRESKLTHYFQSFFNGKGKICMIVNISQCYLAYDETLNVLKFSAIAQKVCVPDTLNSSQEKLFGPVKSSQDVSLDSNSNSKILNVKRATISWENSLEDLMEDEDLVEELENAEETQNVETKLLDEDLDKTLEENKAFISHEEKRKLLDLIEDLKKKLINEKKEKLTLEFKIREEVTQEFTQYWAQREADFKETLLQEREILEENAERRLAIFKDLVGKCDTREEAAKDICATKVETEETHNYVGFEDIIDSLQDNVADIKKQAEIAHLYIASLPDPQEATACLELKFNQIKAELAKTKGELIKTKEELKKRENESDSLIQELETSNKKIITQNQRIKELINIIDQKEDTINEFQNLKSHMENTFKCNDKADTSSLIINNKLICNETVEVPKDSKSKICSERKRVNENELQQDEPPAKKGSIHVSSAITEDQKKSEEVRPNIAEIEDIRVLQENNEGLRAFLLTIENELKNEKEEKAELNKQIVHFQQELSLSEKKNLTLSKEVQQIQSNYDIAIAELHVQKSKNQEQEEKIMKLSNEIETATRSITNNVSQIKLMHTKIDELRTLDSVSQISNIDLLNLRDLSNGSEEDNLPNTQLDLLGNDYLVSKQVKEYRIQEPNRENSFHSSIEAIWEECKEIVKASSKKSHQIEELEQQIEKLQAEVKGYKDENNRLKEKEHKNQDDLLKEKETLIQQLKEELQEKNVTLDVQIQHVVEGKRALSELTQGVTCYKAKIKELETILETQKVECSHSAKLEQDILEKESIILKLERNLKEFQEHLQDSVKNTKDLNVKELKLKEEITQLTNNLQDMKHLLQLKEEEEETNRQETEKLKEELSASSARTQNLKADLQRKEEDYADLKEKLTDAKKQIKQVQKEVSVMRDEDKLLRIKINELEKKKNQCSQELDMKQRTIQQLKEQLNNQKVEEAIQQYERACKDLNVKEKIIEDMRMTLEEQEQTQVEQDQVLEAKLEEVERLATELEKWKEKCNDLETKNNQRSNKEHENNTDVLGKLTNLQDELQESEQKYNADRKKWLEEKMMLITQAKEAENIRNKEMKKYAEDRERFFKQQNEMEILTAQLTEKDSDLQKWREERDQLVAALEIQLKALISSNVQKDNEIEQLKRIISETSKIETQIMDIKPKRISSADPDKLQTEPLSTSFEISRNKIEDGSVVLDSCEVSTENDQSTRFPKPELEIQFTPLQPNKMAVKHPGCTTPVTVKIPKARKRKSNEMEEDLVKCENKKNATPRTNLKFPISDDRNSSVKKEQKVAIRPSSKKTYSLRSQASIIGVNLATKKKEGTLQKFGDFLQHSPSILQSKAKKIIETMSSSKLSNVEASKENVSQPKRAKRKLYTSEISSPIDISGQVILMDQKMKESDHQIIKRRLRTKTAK", "experiment": "Inhibition of microtubule-stimulated ATPase activity of N-terminal His6-tagged/SUMO-fused human MPP1 motor domain (57 to 491 residues) expressed in Escherichia coli BL21 CodonPlus by pyruvate kinase/lactate dehydrogenase-linked assay"}, "[2]": {"experiment": "Cytotoxicity against human HCT116 cells assessed as growth inhibition after 72 hrs by Alamar Blue assay", "assay_type": "functional, cell-based", "details": "HCT-116, 72 h"}, "[3]": {"biological_target": "T1, Kinesin-like protein KIF9 (Homo sapiens) (UniProt Q9HAQ2)", "T1 sequence (whole entry)": "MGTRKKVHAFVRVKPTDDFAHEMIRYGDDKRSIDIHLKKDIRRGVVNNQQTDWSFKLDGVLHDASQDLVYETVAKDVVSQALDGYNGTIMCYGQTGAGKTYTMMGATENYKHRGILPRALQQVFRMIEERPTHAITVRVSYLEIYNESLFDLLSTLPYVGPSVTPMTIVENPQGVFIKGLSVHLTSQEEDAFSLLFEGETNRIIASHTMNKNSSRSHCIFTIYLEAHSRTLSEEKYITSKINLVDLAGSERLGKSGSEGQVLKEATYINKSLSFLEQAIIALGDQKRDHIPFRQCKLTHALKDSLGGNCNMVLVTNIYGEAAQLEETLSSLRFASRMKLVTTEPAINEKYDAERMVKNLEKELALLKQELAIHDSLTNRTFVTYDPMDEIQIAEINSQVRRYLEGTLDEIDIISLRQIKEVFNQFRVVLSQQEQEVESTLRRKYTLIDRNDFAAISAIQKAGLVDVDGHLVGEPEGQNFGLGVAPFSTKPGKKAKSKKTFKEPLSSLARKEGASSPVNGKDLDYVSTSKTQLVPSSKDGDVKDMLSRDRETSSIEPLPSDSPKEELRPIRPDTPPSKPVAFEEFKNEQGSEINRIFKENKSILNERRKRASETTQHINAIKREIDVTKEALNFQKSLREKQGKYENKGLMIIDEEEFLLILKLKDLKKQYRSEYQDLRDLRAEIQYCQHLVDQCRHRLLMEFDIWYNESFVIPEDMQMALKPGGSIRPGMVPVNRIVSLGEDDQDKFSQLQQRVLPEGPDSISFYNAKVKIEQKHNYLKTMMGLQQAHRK", "experiment": "Inhibition of microtubule-stimulated ATPase activity of human Kif9 at 200 uM by pyruvate kinase/lactate dehydrogenase-linked assay"}, "[4]": {"experiment": "Half life in mouse liver microsomes at 3 uM by LC-MS/MS method", "assay_type": "ADME"}, "[5]": {"experiment": "Chemical stability of the compound at 5 uM after 15 to 120 mins by LC-MS/MS method", "assay_type": "physicochemical"}}, "data": [{"smiles": "CCCCCC(=O)Cc1cc(O)cc2c1C(=O)Oc1cc(O)c(C(=O)O)c(CCCCC)c1O2", "note": "[PHYSODIC ACID]", "values": [{"measurement": "IC50", "setting": "[1]", "value": 5.8, "unit": "µM"}, {"measurement": "Imax", "setting": "[1]", "value": 90, "unit": "%"}, {"measurement": "EC50", "setting": "[2]", "value": "> 50", "unit": "µM"}, {"measurement": "inhibition", "setting": "[3]", "value": 50, "unit": "%"}, {"measurement": "half-life at 3 µM", "setting": "[4]", "value": 22.5, "unit": "min"}, {"measurement": "Stability", "setting": "[5]", "value": "Stable"}]}]}
